We go through four compounds from the NIST ThermoML archive (doi:10.1016/j.fluid.2018.08.001).

For the series the following is noted: 303.15 K, 101.33 kPa, Liquid; for viscosity: Capillary tube (Ostwald / Ubbelohde) method; for speed of sound: Linear variable-path acoustic interferometer; for mass density: Pycnometric method.

The term viscosity denotes the internal friction of a fluid under shear. As a reminder, the speed of sound is how fast a sound wave travels through the sample. In general, mass density refers to mass per unit of volume.

Numbers after ± are expanded uncertainties.

As for `CCCCCC` [hexane], the viscosity is 0.36 ± 0.04 mPa·s, the speed of sound is reported as 1051.2 ± 1.9 m/s and the mass density is 652.9 ± 1 kg/m3.

Take `C1CCOC1` [tetrahydrofuran]: the viscosity stood at 0.46 ± 0.04 mPa·s, the speed of sound worked out at 1252.2 ± 1.9 m/s and the mass density worked out at 876.5 ± 1.1 kg/m3.

Consider `NCc1ccccc1` [benzylamine], for which the viscosity was 1.43 ± 0.04 mPa·s, the speed of sound is 1538.2 ± 2.1 m/s and the mass density was 975.6 ± 1.1 kg/m3.

Take `C1COCCO1` [1,4-dioxane]: the viscosity was 1.08 ± 0.04 mPa·s, the speed of sound was 1321 ± 1.9 m/s and the mass density was found to be 1022.4 ± 1.1 kg/m3.
